# Measurements reported in patent publication US20220047596A1, “COMBINATION OF PARP INHIBITOR AND BRD4 INHIBITOR FOR THE TREATMENT OF CANCER” (Board of Regents, The University of Texas System, priority 2018, published 2022).
# Columns and labels:
# HRD gene signature = HRD gene signature score applied to public transcriptional profiling data; settings: human or murine tumors; GEO datasets
# Text: Microarray Analysis and IPA Analysis: Gene expression datasets of GSE29799 (Zuber et al., 2011), GSE66048 (Ambrosini et al., 2015), GSE44929 (Love′ n et al., 2013), GSE85840 (Rhyasen et al., 2016), GSE31365 (Delmore et al., 2011), and GSE43392 (Puissant et al., 2013) were downloaded from Gene Expression Omnibus (GEO) (https://www.ncbi.nlm.nih.gov/geo). Raw data were subjected to intensity normalization using affy package in R (Bioconductor), followed by log transformation and quantile normalization. Normalized data were checked for quality and determined to be free of outliers by analysis using box plots, density plots and MA plots. Differential expression genes after BRD4 inhibition were calculated using a linear model provided by the limma package in R based on the cutoffs: 2 for absolute fold change, 0.05 for p value.
# HRD Score Acquisition from HRD Signature HRD signature consisting of 230 differentially expressed genes was obtained as previously described (Peng et al., 2014). Normalized gene expression data (GSE29799, GSE66048, GSE44929, GSE85840, GSE31365, and GSE43392) after BRD4 inhibition were subjected to unsupervised clustering with these 230 genes. HRD scores were determined by calculating the Pearson's correlations between median centered gene expression levels for HRD signature and gene expression levels for a given sample (Peng et al., 2014).
# U2OS DR-GFP cells = experiment: U2OS DR-GFP HR reporter assay; assay type: cell-based, Human; settings: 100 nM for 24 hr, then I-Sce1 for 48 hr
# Text: HR Repair Analysis: U2OS DR-GFP cells contain a single copy of the HR repair reporter substrate DR-GFP, which contains two nonfunctional GFP open reading frames, including one GFP-coding sequence that is interrupted by a recognition site for the I-SceI endonuclease. Expression of I-SceI leads to formation of a DSB in the I-SceI GFP allele, which can be repaired by HR using the nearby GFP sequence lacking the N- and C-termini, thereby producing functional GFP that can be detected by flow cytometry. […] Then, cells were transfected with a plasmid expressing I-SceI (pCBASce) for 48 hr. Cells transfected with an empty vector were used as a negative control. GFP-expressing plasmid (pEGFP-C1) was used for transfection efficiency control. Flow cytometry analysis was performed to detect GFP^+ cells using FACScalibur with CellQuest software (Becton Dickinson). The repair efficiency was scored as the percentage of GFP^+ cells.
# CtIP = experiment: Western blot of CtIP and DNA damage response proteins; assay type: cell-based, Human
# Method: Protein lysates were analyzed by RPPA in MDACC CCSG (The Cancer Center Support Grant) supported RPPA Core. Antibodies and approaches are described at the RPPA website (https://www.mdanderson.org/research/research-resources/core-facilities/functional-proteomics-rppa-core.html). For visualization, 2D and 3D, concentrations and time were averaged for each cell line. Heat map represents “rank-ordered” changes induced by BRD4i treatment, calculated by summing median-centered protein amount normalized to DMSO. Western Blot: To prepare whole cell lysates, cells were lysed with RIPA buffer (Thermo Fisher Scientific) supplemented with Halt™ Protease and Phosphatase Inhibitor (EDTA-free) Cocktail (Thermo Fisher Scientific). After thorough mixing and incubation at 4° C. for 10 min, lysates were centrifuged at 15,000 g at 4° C. for 15 min, and supernatants were collected. To prepare subcellular fraction of nuclear soluble and chromatin-bound fraction, cells were treated with indicated drugs, and then cells were collected. For fractionation, a Subcellular Protein Fractionation kit (Thermo Fisher Scientific) was used following the manufacturer's instructions. The protein content of the cell was determined, and the cellular lysates were separated by 10% SDS-PAGE, and electro-transferred onto polyvinylidene difluoride (PVDF) membranes. After being blocked with 5% non-fat milk in TBST, the membranes were incubated with primary antibodies at 4° C. overnight, followed by 1:2000 horseradish peroxidase (HRP)-conjugated secondary antibody (Abcam) for 1 hr. Bands were visualized using a Pierce™ ECL Western Blotting Substrate (Thermo Fisher Scientific). Primary antibodies used are listed in Key Resources Table.
# [1] = system: CtIP promoter and enhancer; experiment: ChIP-qPCR at CtIP promoter and enhancer; assay type: cell-based, Human; settings: HOC1; 200 nM, 24 hr
# Method: Chromatin Immunoprecipitation (ChIP-qPCR): ChIP assays were performed with EZ-Magna ChIP™ A/G Chromatin Immunoprecipitation Kit (Millipore Corp) as described in manufacturer's instructions. Briefly, cells were crosslinked with 1% formaldehyde. After cell lysis, isolated nuclei were subjected to sonication for chromatin fragmentation. Sheared chromatin was diluted in diluted buffer, and divided into aliquots for immunoprecipitation. Anti-BRD4 antibody (1:50, #13440S, Cell Signaling), anti-H3K27ac antibody (1:100, ab4729, Abcam), anti-H3K4M1 antibody (1:200, ab8895, Abcam), anti-Pol II antibody (1:100, sc-47701, Santa Cruz) or normal Rabbit IgG control (1:200, #2729, Cell Signaling) were added to chromatin samples, followed by overnight incubation at 4° C., with rotation. Antibody-chromatin complexes were captured using magnetic protein A/G beads. Purified DNAs were subjected to quantitative PCR (qPCR). All primers are list in Table 2.
# HOC1 cells [2] = experiment: Detection of ssDNA by BrdU immunofluorescence under non-denaturing conditions; assay type: cell-based, Human; settings: 4 hr after 10 Gy irradiation
# Method: Detection of ssDNA by Immunofluorescence: Cells were grown in […] BrdU for two doubling times before irradiation. […] Cells were placed on ice 10 min before irradiation and kept on ice during the irradiation with 10 Gy. […] BrdU was stained (anti-BrdU, ab8152, 1:100 from Abcam) in non-denaturing conditions which enables detection of BrdU incorporated in ssDNA. TE-2000 imaging acquisition system (Nikon) equipped with a 60× objective lens was used to capture images. Stained was quantified by ImageJ.
# HOC1 cells [3] = experiment: RPA and RAD51 foci immunofluorescence; assay type: cell-based, Human; settings: for RAD51 nuclear foci: after PARPi or IR, compared with vehicle
# Method: Immunofluorescence Staining and Microscopy: Briefly, cells were washed with PBS and fixed with 4% paraformaldehyde for 5 min, followed by permeabilization with 0.5% NP-40 and 1% Triton X-100 for 10 min Cells were then blocked with 5% FBS for 30 min and incubated with primary antibody (anti-RAD51, PC130, 1:100; anti-g-H2AX (Ser139), clone JBW301, 1:1000 from Millipore Corp; anti-RPA32, ab2175, 1:500 from Abcam) for 2 hr, followed by secondary antibody incubation for 1 hr at room temperature. Slides were sealed in mounting medium containing DAPI (Vector Laboratories, H1200) for further image acquisition. TE-2000 imaging acquisition system (Nikon) equipped with a 60× objective lens was used to capture images. Stained was quantified by ImageJ.
# HOC1 cells [4] = experiment: Alkaline comet assay; assay type: cell-based, Human; settings: 200 nM each, 48 hr
# Method: Alkaline Single-Cell Agarose Gel Electrophoresis (Comet) Assays: Alkaline comet assays were performed with Comet Assay Kit (Trevigen) using manufacturer's instructions. Briefly, cell suspensions were embedded in LM (low melting) Agarose and deposited on comet slides. Slides were incubated for 1 hr at 4° C. in lysis solution, followed by immersing slides in freshly prepared alkaline unwinding solution (pH >13) for 20 min at room temperature in the dark. Electrophoresis was carried out for 30 min at 21 V in electrophoresis solution (pH >13). Slides were then stained with SYBR™ Gold (Thermo Fisher Scientific). Tail DNA content was analyzed with Comet score 1.5 software. DNA strand breakage was expressed as “comet tail moment”. The tail moment was measured for a minimum of 50 cells per sample, and average damage from 3 independent experiments was calculated.
# cancer cell lines = experiment: Viability measurement (PrestoBlue, 96 hr) with CalcuSyn combination index; assay type: cell-based, Human; set-up: synergy with JQ1 at fixed PARPi concentration: dose or concentration left out as unconfirmed; settings: for synergy with JQ1 at fixed PARPi concentration: 96 hr, HOC1 cells; for synergistic effects in combinations with BRD4i (JQ1): similar combination indices indicative of synergy
# Method: (§1) Viability Measurements: Five thousand cells were seeded into sterile 96-well plates and treated with indicated drug combinations for 96 hr. DMSO was used as a vehicle. PrestoBlue® Cell Viability Reagent (Thermo Fisher Scientific) was used to assess cell viability. Background values from empty wells were subtracted and data normalized to vehicle-treated control. Synergistic effects between both compounds were calculated using the Chou-Talalay equation in CalcuSyn software, which takes into account both potency (IC50) and shape of the dose-effect curve. […], and CI>1 indicates antagonism.
# [5] = system: OVCAR8 and WU-BC3 PDX tumors; experiment: IHC of OVCAR8 and WU-BC3 PDX tumors at study termination; set-up: species or system mice; settings: mouse, in vivo
# Method: Immunohistochemical Staining (IHC) Tissues were fixed in 10% formalin overnight and embedded in paraffin. […] paraffin embedded sections were first deparaffinized in xylene. IHC were carried out with EnVision Detection Systems HRP. Rabbit/Mouse (DAB+) kit (Agilent) following manufacturer's instructions. Endogenous peroxidase was blocked by incubation with 0.3% hydrogen peroxide for 15 min. Antigen retrieval was performed by boiling the slides in citrate buffer (10 mM, pH 6.0) in a water bath for […]. Slides were rinsed in PBS Tween 0.05% and blocked for […] with 5% bovine serum albumin (BSA). Slide were incubated overnight at 4° C. with primary antibodies (anti-BRD4,
# #13440S, 1:200; anti-CtIP, #9201S, 1:200 from Cell Signaling Technology; anti-RAD51, PC130, 1:100; anti-g-H2AX (Ser139), clone JBW301, 1:500 from Millipore Corp; and anti-pRPA32(S4/8), A300-245A, 1:1000 from Bethyl Laboratories), followed by 1 hr with Labelled Polymer-HRP at room temperature. Negative controls were treated identically, but without primary antibody. Subsequently, slides were incubated with DAB+ Chromogen. Slides were counterstained with hematoxylin. After mounting, slides were observed under microscope and photographed.
# OVCAR8 Xenografts: 3×10^6 OVCAR8 cells were injected s.c. into mouse flanks in a 1:1 mix of PBS and Matrigel. […] Tumor volumes were calculated using […]. […]
# PARP = settings: cited from earlier work
# DT40 cells = experiment: Viability dose response in DT40 WT and PARP1-/- cells; assay type: cell-based, Chicken
# Method: as §1
# OVCAR3 xenografts = experiment: OVCAR3 xenograft; assay type: in vivo, mice; settings: Olaparib 100 mg/kg, AZD5153 2.5 mg/kg, oral gavage, daily, 35 days
# Method: 6 weeks old female C.B-17 scid mice were purchased from Charles River Laboratories and used for OVCAR3 xenografts. Tumor cells were injected into female mice of approximately 8-10 weeks of age. All mice were housed under pathogen-free conditions at AstraZeneca AAALAC accredited facility. All animal experiments were conducted in compliance with the National Institute of Health guidelines for animal research and approved by the Institutional Animal Care and Use Committee of AstraZeneca.
# OVCAR3 Xenograft: […] OVCAR3 cells were injected subcutaneously in the right flank of mice. Mice were randomized based on tumor volumes using stratified sampling and enrolled into control and treatment groups. Dosing began when mean tumor size reached approximately 200 mm^3 and continued for 35 days.
# [6] = Toxicity analysis in the T127 model (blood counts, serum chemistry); assay type: in vivo, mice; settings: compared with the vehicle group
# Text: Mice were sacrificed when tumor diameter reached maximum limits of 2.5 cmat Day 22 for tissue harvest and blood collection 3 hr after the final treatment.
structure (smiles),measurement,setting,value
Cc1sc2c(c1C)C(c1ccc(Cl)cc1)=N[C@@H](CC(=O)OC(C)(C)C)c1nnc(C)n1-2 [JQ1],HRD score,HRD gene signature,increased HRD score
same,HR repair (percentage of GFP+ cells),U2OS DR-GFP cells,attenuated HR repair
same,expression of other MRN complex proteins,"CtIP; 200 nM, 48 hr, HeyA8, OVCAR8, HOC7 cells",did not markedly alter
same,CtIP and pRPA32 (S4/8) protein,"CtIP; HOC1 and HeyA8 cells, dose and time course",decreased CtIP and phosphorylated RPA32
same,RAD51 levels,"CtIP; HeyA8 and HOC7, 200 nM, 48 hr",modestly decreased
same,BRCA1 levels,"CtIP; MCAS, 200 nM, 48 hr",modestly decreased
same,CtIP protein,"CtIP; all lines assessed, 200 nM, 48 hr",consistently decreased
same,BRD4 association with the CtIP promoter and enhancer,[1],decreased
same,"H3K27Ac, H3K4Me1 at the CtIP promoter and enhancer",[1],reduced
same,association of RNA Pol-II with the CtIP promoter and enhancer,[1],decreased association
same,formation of ssDNA,HOC1 cells [2],significantly reduced
same,RAD51 nuclear foci,HOC1 cells [3],decreased RAD51 nuclear foci
same,RPA focus formation,HOC1 cells [3]; in response to PARPi or IR,severely impaired
same,DNA damage (comet assay),HOC1 cells [4],modestly induced DNA damage
same,resensitization of PARPi-resistant cells to PARPi,"cancer cell lines; A2780CP_R, OAW42_R and OC316_R",resensitized
same,PARPi resistance mediated by 53BP1 knockdown,"cancer cell lines; BRCA1 knockdown MCF10A, BRCA1 mutant UWB1.289 and COV362 cells",reversed resistance
same,CtIP and pRPA32 (S4/8) (IHC),[5],decreased
same,gH2AX (IHC),[5],increased
C[C@]1(c2nc3c(C(N)=O)cccc3[nH]2)CCCN1 [ABT888],synergy with JQ1 at fixed PARPi concentration,cancer cell lines,synergized with JQ1
same,synergistic effects in combinations with BRD4i (JQ1),cancer cell lines,synergistic effects were maintained
same,PARP trapping activity,PARP,weakest
same,concentration required for PARP trapping,PARP,50 mM
Cn1ncnc1[C@H]1c2n[nH]c(=O)c3cc(F)cc(c23)N[C@@H]1c1ccc(F)cc1 [BMN673],DNA damage (comet assay),HOC1 cells [4],modestly induced DNA damage
same,synergy with JQ1 at fixed PARPi concentration,cancer cell lines,synergized with JQ1
same,sensitivity of cell lines to PARPi alone,"cancer cell lines; OAW42, A2780CP, A2780, UWB1.289, OC316, ARK1, HCC1187, BT20, MDA-MB-436",highly sensitive
same,sensitivity of PARP1-/- DT40,DT40 cells,resistant
same,PARP trapping activity,PARP,most active
COc1nnc2ccc(N3CCC(c4ccc(OCCN5CCN(C)C(=O)[C@H]5C)cc4)CC3)nn12 [AZD5153],HRD score,HRD gene signature,increased HRD score
same,HR repair (percentage of GFP+ cells),U2OS DR-GFP cells,attenuated HR repair
same,RAD51 nuclear foci,HOC1 cells [3],decreased RAD51 nuclear foci
same,tumor growth inhibitions (TGI),OVCAR3 xenografts,83%
same,numbers of white blood cells,[6],slight decrease but remained in the normal range
NC(=O)c1cccc2cn(-c3ccc([C@@H]4CCCNC4)cc3)nc12 [Niraparib],PARP trapping activity,PARP,intermediate in activity
CNCc1ccc(-c2[nH]c3cc(F)cc4c3c2CCNC4=O)cc1 [Rucaparib],PARP trapping activity,PARP,intermediate in activity
O=C(c1cc(Cc2n[nH]c(=O)c3ccccc23)ccc1F)N1CCN(C(=O)C2CC2)CC1 [Olaparib],synergy with JQ1 at fixed PARPi concentration,cancer cell lines,synergized with JQ1
same,synergistic effects in combinations with BRD4i (JQ1),cancer cell lines,synergistic effects were maintained
same,tumor growth inhibitions (TGI),OVCAR3 xenografts,35%
